From US20050203188A1, “Fungicidal mixtures based on benzamideoxime derivatives, benzophenones and on an azole” (priority 2002, published 2005)

Tests used:
Puccinia recondita = assay: Curative activity against brown rust of wheat (potted wheat seedlings cv. Kanzler); assay type: in vivo; settings: single active, 7 days
Procedure: (§1) The active compounds are prepared separately or together as a 10% strength emulsion in a mixture of 63% by weight of cyclohexanone and 27% by weight of emulsifier and diluted with water to the desired concentration.
(§2) Evaluation is carried out by determining the infected leaf areas in percent. These percentages are converted into efficacies. The efficacy (E) is calculated as follows using Abbot's formula: E=(1−α)*100/β • α corresponds to the fungal infection of the treated plants in % and • β corresponds to the fungal infection of the untreated (control) plants in %
(§3) An efficacy of 0 means that the infection level of the treated plants corresponds to that of the untreated control plants; an efficacy of 100 means that the treated plants were not infected.
(§4) The expected efficacies of the active compound mixtures were determined using Colby's formula [S. R. Colby, Weeds 15, 20-22 (1967)] and compared with the observed efficacies. Colby's formula: E=x+y−x−y/100 • E expected efficacy, expressed in % of the untreated control, when using the mixture of the active compounds A and B at the concentrations a and b • x efficacy, expressed in % of the untreated control, when using active compound A at a concentration of a • y efficacy, expressed in % of.the untreated control, when using active compound B at a concentration of b
Leaves of potted wheat seedlings of the cultivar “Kanzler” were dusted with spores of brown rust (Puccinia recondita). The pots were then placed in a chamber with high atmospheric humidity (90 to 95%), at 20 to 22° C., for 24 hours. During this period of time, the spores germinated and the germinal tubes penetrated into the leaf tissue. The next day, the infected plants were sprayed to runoff point with an aqueous suspension having the concentration of active compound stated below. The suspension or emulsion had been prepared from a stock solution comprising 10% of active compound in a mixture consisting of 85% of cyclohexanone and 5% of emulsifier. After the spray coating had dried on, the test plants were cultivated in a greenhouse at temperatures between 20 and 22° C. and at 65 to 70% relative atmospheric humidity for 7 days. The extent of the rust fungus development on the leaves was then determined.
The visually determined percentages of infected leaf areas were converted into efficacies as % of the untreated control. An efficacy of 0 means that the infection level of the treated plants corresponds to that of the untreated control; an efficacy of 100 means 0% infection. The expected efficacies of the combinations of active compounds were determined using Colby's formula (Colby, S. R. “Calculating synergistic and antagonistic responses of herbicide Combinations”, Weeds, 15, pp. 20-22, 1967) and compared with the observed efficacies.

[1] = system: Erysiphe [syn. Blumeria] graminis forma specialis tritici; assay: Activity against mildew of wheat (protective spray, potted wheat seedlings cv. Kanzler); assay type: in vivo; settings: single active, 7 days after inoculation
Procedure: as §1, §2, §3, §4
Leaves of potted wheat seedlings of the cultivar “Kanzler” were sprayed to runoff point with an aqueous suspension having the concentration of active compound stated below. The suspension or emulsion had been prepared from a stock solution comprising 10% of active compound in a mixture consisting of 85% of cyclohexanone and 5% of emulsifier. 24 hours after the spray coating had dried on, the seedlings were dusted with spores of mildew of wheat (Erysiphe [syn. Blumeria] graminis forma specialis tritici). The test plants were then placed in a greenhouse at temperatures between 20 and 24° C. and 60 to 90% relative atmospheric humidity. After 7 days, the extent of the mildew development was determined visually in % infection of the total leaf area.
The visually determined percentages of infected leaf area were converted into efficacies as % of the untreated control. An efficacy of 0 means the infection level of the treated plants corresponds to that of the untreated control; an efficacy of 100 means 0% infection. The expected efficacies of the combinations of active compounds were determined using Colby's formula (Colby, S. R. “Calculating synergistic and antagonistic responses of herbicide Combinations”, Weeds, 15, pp., 20-22, 1967) and compared with the observed efficacies.

Row | Structure (SMILES) | Efficacy in % of the untreated control (Puccinia recondita; 0.015 ppm in spray liquor) [%] | Efficacy in % of the untreated control (Puccinia recondita; 0.06 ppm in spray liquor) [%] | Efficacy in % of the untreated control (Puccinia recondita; 0.25 ppm in spray liquor) [%] | Efficacy in % of the untreated control (Puccinia recondita; 1 ppm in spray liquor) [%] | Efficacy in % of the untreated control ([1]; 0.015 ppm in spray liquor) [%] | Efficacy in % of the untreated control ([1]; 0.06 ppm in spray liquor) [%] | Efficacy in % of the untreated control ([1]; 0.25 ppm in spray liquor) [%] | Efficacy in % of the untreated control ([1]; 1 ppm in spray liquor) [%]
1 | COc1cc(C)c(C(=O)c2c(OC)ccc(Br)c2C)c(OC)c1OC [Compound II = metrafenone, metrafenone] | 0 | 0 | 0 | 0 | 33 | 44 | 56 | 72
2 | Fc1ccc(C2(Cn3cncn3)OC2c2ccccc2Cl)cc1 (stereo not drawn) [Compound III = epoxiconazole, epoxiconazole] | 0 | 67 | 89 | 94 | 0 | 33 | 44 | 56
3 | COC(=O)N(OC)c1ccccc1COc1ccn(-c2ccc(Cl)cc2)n1 [Compound IV = pyraclostrobin, pyraclostrobin] | 22 | 33 | 33 | 78 | 0 | 0 | 0 | 33
